{"source": "paper PMC12596928", "about": "(Chembiochem, 2025)", "key": {"SdeA [1]": {"target": "T1, SdeA (Legionella pneumophila subsp. pneumophila, UniProt Q5ZTK4)", "T1 sequence (Q5ZTK4 231-1190 limits assumed)": "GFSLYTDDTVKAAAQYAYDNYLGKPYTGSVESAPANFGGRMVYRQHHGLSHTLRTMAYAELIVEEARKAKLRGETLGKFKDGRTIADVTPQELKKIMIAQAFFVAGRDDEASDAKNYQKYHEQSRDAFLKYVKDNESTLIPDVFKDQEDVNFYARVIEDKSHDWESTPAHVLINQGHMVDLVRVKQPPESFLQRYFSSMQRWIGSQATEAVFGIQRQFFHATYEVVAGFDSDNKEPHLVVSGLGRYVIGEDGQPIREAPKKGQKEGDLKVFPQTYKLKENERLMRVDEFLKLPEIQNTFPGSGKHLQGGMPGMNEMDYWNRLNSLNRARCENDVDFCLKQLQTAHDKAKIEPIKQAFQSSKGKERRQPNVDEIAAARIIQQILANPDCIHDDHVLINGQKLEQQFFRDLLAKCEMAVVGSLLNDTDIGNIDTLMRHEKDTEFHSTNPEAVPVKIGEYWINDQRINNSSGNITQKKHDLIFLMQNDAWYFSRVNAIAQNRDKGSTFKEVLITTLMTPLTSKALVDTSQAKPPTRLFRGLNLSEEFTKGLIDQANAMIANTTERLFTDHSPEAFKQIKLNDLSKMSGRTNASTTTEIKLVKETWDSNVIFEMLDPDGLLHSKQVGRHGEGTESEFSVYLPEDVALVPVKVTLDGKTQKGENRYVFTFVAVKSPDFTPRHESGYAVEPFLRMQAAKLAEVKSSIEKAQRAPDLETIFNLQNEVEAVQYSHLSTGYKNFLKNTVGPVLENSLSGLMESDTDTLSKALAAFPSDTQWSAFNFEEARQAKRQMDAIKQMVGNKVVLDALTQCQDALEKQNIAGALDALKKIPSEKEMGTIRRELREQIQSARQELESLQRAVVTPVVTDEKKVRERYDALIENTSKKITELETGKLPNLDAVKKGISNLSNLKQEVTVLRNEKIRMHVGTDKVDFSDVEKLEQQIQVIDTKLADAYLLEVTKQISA", "format": "biochemical"}, "SdeA [2]": {"target": "T1, SdeA", "assay": "biochemical"}, "SdeA [3]": {"target": "T1, SdeA", "assay": "biochemical", "remark": "listed apart in the source"}}, "note": "Several values for one entry are separate records, joined by “and”; a condition that tells them apart may be missing. Equal values may be shown once. Where a name gives a salt, the structure may show the parent alone. Read-outs that look alike come from different tables or passages of the source."}
{"compound": "NC(=O)c1cccc(N)c1", "note": "[3‐AB, 3‐aminobenzamide]", "values": [{"measurement": "behaviour as potential positive control", "setting": "SdeA [1]", "result": "auto‐fluorescent"}]}
{"compound": "O=C(O)C1=CC(=C(c2ccc(O)c(C(=O)O)c2)c2ccc(O)c(C(=O)O)c2)C=CC1=O", "note": "[Aurintricarboxylic acid]", "values": [{"measurement": "inhibition at 5 µM", "setting": "SdeA [2]", "result": 96.3, "unit": "%"}]}
{"compound": "O=[N+]([O-])[O-].O=[N+]([O-])[O-].[Cd+2]", "note": "[Cd(NO3)2]", "values": [{"measurement": "IC50", "setting": "SdeA [3]; read-out: IC50", "result": 29.8, "unit": "µM"}]}
{"compound": "CC(=O)OCC1=C(C(=O)O)N2C(=O)[C@@H](NC(=O)CCC[C@@H](N)C(=O)O)[C@H]2SC1", "note": "[Cephalosporin C zinc salt, cephalosporin C Zn^2+ salt]", "values": [{"measurement": "Inhibition", "setting": "SdeA [2]", "result": 75, "unit": "%"}, {"measurement": "inhibition at 5 µM", "setting": "SdeA [2]", "result": 74.6, "unit": "%"}, {"measurement": "IC50", "setting": "SdeA [3]; IC50", "result": "0.221 µM and 0.2 µM"}]}
{"compound": "[Cl][Cu][Cl]", "note": "[CuCl2]", "values": [{"measurement": "IC50", "setting": "SdeA [3]; read-out: IC50", "result": 12.3, "unit": "µM"}]}
{"compound": "O=c1cc(-c2ccccc2)oc2c(O)c(O)ccc12", "note": "[Dihydroxyflavone]", "values": [{"measurement": "inhibition at 5 µM", "setting": "SdeA [2]", "result": 96.5, "unit": "%"}]}
{"compound": "O=c1cc2c(=O)oc3cc(O)c(O)oc3c2c(O)c1O", "note": "[Galloflavin potassium salt]", "values": [{"measurement": "inhibition at 5 µM", "setting": "SdeA [2]", "result": 92.4, "unit": "%"}]}
{"compound": "[Cl-].[Cl-].[Mg+2]", "note": "[MgCl2]", "values": [{"measurement": "IC50 (μM)", "setting": "SdeA [3]", "result": "do not show any inhibitory effect and n.i"}]}
{"compound": "[Cl][Mn][Cl]", "note": "[MnCl2]", "values": [{"measurement": "IC50 (μM)", "setting": "SdeA [3]", "result": "do not show any inhibitory effect and n.i"}]}
{"compound": "[Cl][Ni][Cl]", "note": "[NiCl2]", "values": [{"measurement": "IC50", "setting": "SdeA [3]; read-out: IC50", "result": 67.1, "unit": "µM"}]}
{"compound": "CCCCCCCC(=O)ON1C(=O)CCC1=O", "note": "[N‐succinimidyl octanoate]", "values": [{"measurement": "inhibition of SdeA", "setting": "SdeA [1]", "result": "full inhibition"}]}
{"compound": "O=[N+]([O-])[O-].O=[N+]([O-])[O-].[Pb+2]", "note": "[Pb(NO3)2]", "values": [{"measurement": "IC50", "setting": "SdeA [3]; read-out: IC50", "result": 43.6, "unit": "µM"}]}
{"compound": "O=c1c(O)c(-c2ccc(O)c(O)c2)oc2cc(O)cc(O)c12", "note": "[Quercetin dihydrate]", "values": [{"measurement": "inhibition at 5 µM", "setting": "SdeA [2]", "result": 52.2, "unit": "%"}]}
{"compound": "N#CC(C#N)=C(N)/C(C#N)=C/c1cc(O)c(O)c(O)c1", "note": "[Tyrphostin A51]", "values": [{"measurement": "inhibition at 5 µM", "setting": "SdeA [2]", "result": 98.2, "unit": "%"}]}
{"compound": "[Cl-].[Cl-].[Zn+2]", "note": "[ZnCl2]", "values": [{"measurement": "fold difference in IC50 between zinc and copper", "setting": "SdeA [3]", "result": 40, "unit": "fold"}, {"measurement": "IC50", "setting": "SdeA [3]; read-out: IC50", "result": "0.46 µM and 0.3 µM"}]}
